Laboratory results from patent publication US8487009B2, “1,2-diphenylethene derivatives for treatment of immune diseases” (Glaxo Group Limited, priority 2001, dated 2013).
Like-named read-outs stand apart in the source and are kept apart here.

Columns and labels:
T-cell proliferation = T-cell proliferation ([3H]thymidine uptake, C57BL/6 responders with mitomycin C treated BALB/C feeder cells); type: cell-based; conditions: murine T-cells, read-out: Concentration that provides 50% inhibition of T-cell proliferation, IC50
Description: T-cell assay is commonly employed as a primary platform for testing of activities that modulate immune and inflammatory activities in many diseases. Assays of antigen non-specific T-cell proliferation and antigen-specific proliferation are often used in the tests.
(§1) To determine the effect of the inventive compounds on non-specific and specific antigen induced T-cell proliferation, compounds were tested at a range of concentrations as outlined by the following protocol: Murine lymph nodes were removed aseptically and cell suspensions were prepared in RPMI-1640. Single lymphocytes were isolated over Lymphocyte-M by centrifugation at 22° C. and 1800 g for 15 min, and then washed three times (500 g for 5 min at 22° C.). Adherent cells were depleted by cytoadherence to fibronectin-coated plastic culture dish (twice at 37° C. for 45 min). T-cells isolated by incubating cell suspensions in a nylon wool column for 2 h at 37° C. and use for subsequent experiments were greater than 95% viable, as determined by trypan blue exclusion. Feeder cells were prepared by treating BALB/C spleen cells with mitomycin C (50 μg/ml, for 20 min at 37° C.) followed by five times washing using a large volume of Hank's solution. C57BL/6 Responders (2×10^5) was incubated in duplicate with the mitomycin C treated BALB/C feeder cells (2×10^5) in 96-well, round-bottomed, microtitre plates (Costar Laboratories, Worcester, Mass.) with complete medium (RPMI 1640 with 25 mM Hepes and L-glutamine supplemented with […] 2-mercapto-ethanol, 10% fetal cow serum (FCS), 10,000 unit of penicillin, and 10 mg of streptomycin per 100 ml of medium) at 37° C., 5% CO2. After 96 h, the culture wells received [^3H]thymidine ([^3H]TdR; 1 μCi/well) and proliferation was assessed at 16 h by harvesting cells onto glass fiber filter paper and counting in a β-counter.

IL-2 production = IL-2 production from Con A activated T-cells (ELISA); type: cell-based, murine; conditions: read-out: Inhibitory activity against IL-2 production, IC50
Description: as §1
(§2) To determine the effect of inventive compounds on IL-2, IL-4 and IFN-γ production from activated T-cells, the following assays were performed using the protocol outlined above for T-cells. The T-cell was activated by concanavalin A (Con A) and incubated, cytokines in the supernatants were assayed by commercial immune-linked immunosorbent assay (ELISA) kits.

IFN-γ = IFN-γ production from Con A activated T-cells (ELISA); type: cell-based, murine; conditions: read-out: Concentration for 50% of inhibition of IFN-γ, IC50
Description: as §1, §2

TNF-α production = TNF-α production by macrophage cells (ELISA); type: cell-based; conditions: murine macrophage cells, 24 h; for Effect on TNF-α production, % of control: 10 μM; for activity at 10 µM: Mus musculus, read-out: Effect on TNF-α production, % of control
Source text: (§3) Macrophages are very important components of the host defense system, but they are also involved in the development of tissue injury during inflammation in some human disease. Efficient antagonists can block subsequent symptoms (skin redness, edema, pain and dysfunction) of inflammation. CD86 expression, nitric oxide and TNF-α production are experimental indicators of macrophage function in vivo. CD86 expression by antigen presenting cells, including dendritic cells, macrophages and activated B cells, is necessary for interaction with T-cell CD28, which is necessary for T-cells to be fully activated. Nitric oxide is a potent microbiological macrophage product. TNF-α is a pro-inflammatory cytokine important in recruitment and stimulation of inflammatory cells. The effect of inventive compounds on the TNF-α production by macrophage cells was tested using the following protocol: Murine macrophage cells were lifted from adherent culture and resuspended in 10% FCS in DMEM. Cells (5×10^4/well) were aliquoted into flat bottom, tissue culture-treated microtitre plates and lipolysaccharide, N-acetylcysteine, test compound or vehicle controls were added. The cells were incubated at 37° C., 5% CO2 for 24 h and the culture supernatant removed for TNF-α ELISA, and CD86 expression was determined by FACS analysis on flow cytometer.

[1] = test system: induced edema in Balb/c mouse; assay: TPA induced mouse ear edema model; type: in vivo; conditions: single topical administration
Description: Briefly, Balb/c mouse ear edema was induced by phorbol-12-myristate-13-acetate (TPA) by adding 20 ul of 0.01% (w/v) to the right ear of each mouse. Each test compound dissolved in the same vehicle (ethanol) as TPA was applied separately to the right ear of each moue. The mouse ear edema of each test compound was compared with that of the TPA and expressed as % of inhibition.

[2] = test system: CD86 expression in murine macrophages; assay: CD86 expression in murine macrophages (FACS); type: cell-based; conditions: 10 μM, 24 h
Source text: as §3

[3] = test system: histamine release by mast cells; assay: Histamine release by mast cells derived from mouse bone marrow (hexosamindase activity); type: cell-based; conditions: Mast cell, read-out: Effect on histamine release by mast cells, IC50
Description: Histamine is an important mediator and is involved in a wide range of biological activities, including inflammation and allergy. The activity of representative compounds, against histamine release was tested using a standard mast cell assay (Arquardt, C. et al. 1986. Am Rev Respir Dis 133:1105-1109). The mast cells were derived from mouse bone marrow. The histamine release was measured by the hexosamindase activity.

[4] = test system: crystal induced neutrophil activation; assay: Crystal (calcium pyrophosphate dihydrate) induced neutrophil activation, chemoluminescence; type: cell-based, human; conditions: 25 μM
Description: (§4) Neutrophils predominate over other cell types in many variants of acute and chronic inflammatory condition. Effect of the inventive compounds was tested on human neutrophil activation by chemoattractant [N-formyl-methionyl-luecyl-phenylalanine (FMPL)] and crystal (calcium pyrophosphate dihydrate) using an established protocol (Tudan, C. 1999. Biochem. Pharmacol 58:1869-1880).
(§5) Neutrophils were prepared from freshly collected human citrated whole blood. Briefly, 400 ml of blood were mixed with 80 ml of 4% dextran in Hanks buffered saline solution (HBSS) pH 7.4 and allowed to settle for 1 hour. Plasma was collected continuously and 5 ml applied to 5 ml of Ficoll Paque (Pharmacia) in 15 ml polypropylene tubes. Following centrifugation at 500 g for 30 minutes, the neutrophil pellets were washed free of erythrocytes by 20 seconds of hypotonic shock. Neutrophils were resuspended in HBSS, kept on ice and used for experiments within 3 h. Neutrophil viability and purity was always greater than 90%. Solutions of test compounds were added to neutrophils at 5,000,000 cells per ml under mild vortexing. Cells were incubated for 20 minutes at 33° C. then for 10 minutes at 37° C. before addition to crystals or chemoattractants for neutrophil activation. Chemoluminescence was monitored using an luminometer at 37° C.

[5] = test system: FMLP induced neutrophil activation; assay: FMLP induced neutrophil activation, chemoluminescence; type: cell-based; conditions: Homo sapiens, read-out: FMLP induced neutrophil activation, Chemoluminescence (mV), % of control
Description: as §4, §5

IC50 (IL-2 production; Mus musculus, T-cell) [nM]	IC50 (IFN-γ; Mus musculus, T-cell) [nM]	Compound	IC50 (T-cell proliferation) [nM]	Effect on CD86 expression in murine macrophages, % of control [2] [%]	IC50 (T-cell proliferation; Mus musculus, T-cell) [nM]	other results
–	–	CC(C)c1c(O)cc(C(C#N)=Cc2ccccc2)cc1O [2-(3,5-Dihydroxy-4-i-propylphenyl)-3-phenylpropenylnitrile]	3500	–	–	IC50 (IL-2 production): 130 nM; IC50 (IFN-γ): 860 nM; Effect on TNF-α production, % of control (TNF-α production): 60%; % inhibition of edema [1]: 85.2%
–	–	CC(C)c1c(O)cc(C=Cc2ccccn2)cc1O.Cl [2-[2-(3.5-Dihydroxy-4-i-propylphenyl)ethenyl]pyridine hydrochloride]	2090	88	–	Effect on TNF-α production, % of control (TNF-α production): 75%
28	80	CC(C)c1c(O)cc(C=Cc2cccs2)cc1O [2-i-Propyl-5-(2-thiophene-2-ylethenyl)-1,3-benzenediol]	–	2	5160	activity at 10 µM (TNF-α production): 50%; IC50 [3]: 18900 nM
–	–	CC(C)c1c(O)cc(C=C(C#N)c2ccccc2)cc1O [3-(3,5-Dihydroxy-4-i-propylphenyl)-2-phenylpropenylnitrile]	1810	16	–	IC50 (IFN-γ): 710 nM
–	1620	CC(=Cc1ccccc1)c1cc(O)c(C(C)C)c(O)c1 [5-(1-Methyl-2-phenylethenyl)-2-i-propyl-1,3-benzenediol]	–	0	1490	–
–	1710	CC(C)c1c(O)cc(C=C(c2ccccc2)c2ccccc2)cc1O [5-(2,2-Diphenylethenyl)-2-i-propyl-1,3-benzenediol]	–	10	–	–
1790	–	CC(=Cc1cc(O)cc(O)c1)c1ccccc1 [5-(2-Methyl-2-phenylethenyl)-1,3-benzenediol]	–	90	4650	activity at 10 µM (TNF-α production): 42%
400	–	CC(=Cc1cc(O)c(C(C)C)c(O)c1)c1ccccc1 [5-(2-Methyl-2-phenylethenyl)-2-i-propyl-1,3-benzenediol]	–	51	1150	Crystal induced neutrophil activation, chemoluminescence (mV) as % of the control ([4]; time 1 minute): 23%; Crystal induced neutrophil activation, chemoluminescence (mV) as % of the control ([4]; time 2 minutes): 10%; Crystal induced neutrophil activation, chemoluminescence (mV) as % of the control ([4]; time 3 minutes): 7%; Crystal induced neutrophil activation, chemoluminescence (mV) as % of the control ([4]; time 4 minutes): 6%; Crystal induced neutrophil activation, chemoluminescence (mV) as % of the control ([4]; time 5 minutes): 6%; Crystal induced neutrophil activation, chemoluminescence (mV) as % of the control ([4]; time 7 minutes): 16%; Crystal induced neutrophil activation, chemoluminescence (mV) as % of the control ([4]; time 10 minutes): 29%; activity at 25 µM [5]: 30%
–	–	C=C1/C(=C\C=C2/CCC[C@]3(C)[C@@H]([C@H](C)CCCC(C)(C)O)CC[C@@H]23)C[C@@H](O)C[C@@H]1O [calcitriol, reference compound]	–	–	–	% inhibition of edema ([1]; 0.01% calcitriol): 31.2%
